Data published in PubChem BioAssay (NCI).
“And” between values parts separate entries of the source, which are not always exact repeats. Equal entries are not always repeated.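 A five-concentration, 48-hour dose response in 96-well plates underlies each endpoint, interpolated linearly between surrounding concentrations. At the GI50, growth is halved. TGI marks complete inhibition of growth.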

Assays:
Assay in all cases: inhibition of tumour cell growth, NCI panel, 48 h
OVCAR-8 ovarian = tested on: OVCAR-8 ovarian
MDA-MB-435 = tested on: MDA-MB-435
SNB-75 CNS = tested on: SNB-75 CNS
NCI-H226 lung = tested on: NCI-H226 lung
SK-MEL-5 melanoma = tested on: SK-MEL-5 melanoma
RXF 393 renal = tested on: RXF 393 renal
M14 melanoma = tested on: M14 melanoma
UO-31 renal = tested on: UO-31 renal
SK-OV-3 ovarian = tested on: SK-OV-3 ovarian
SK-MEL-28 melanoma = tested on: SK-MEL-28 melanoma

Row | Structure (SMILES) | GI50 (OVCAR-8 ovarian) | TGI (OVCAR-8 ovarian) | GI50 (MDA-MB-435) | TGI (MDA-MB-435) | GI50 (SNB-75 CNS) | TGI (SNB-75 CNS) | GI50 (NCI-H226 lung) [µM] | TGI (NCI-H226 lung) | GI50 (SK-MEL-5 melanoma) | TGI (SK-MEL-5 melanoma) | GI50 (RXF 393 renal) | GI50 (M14 melanoma) | TGI (M14 melanoma) | GI50 (UO-31 renal) | TGI (UO-31 renal) | GI50 (SK-OV-3 ovarian) | TGI (SK-OV-3 ovarian) | GI50 (SK-MEL-28 melanoma) | TGI (SK-MEL-28 melanoma) | TGI (RXF 393 renal) [µM]
1 | Cc1cnc(NC(=O)Nc2cc(Br)c(C)cc2OC[C@@H]2CNCCO2)cn1 | 0.666 µM and 0.664 µM | > 10 µM and 12.8 µM | 0.459 µM and 0.378 µM | 3.58 µM and 2.43 µM | 4.61 µM and 2.95 µM | > 10 µM and 15.8 µM | 5.84 | > 10 µM and 20.8 µM | 1.43 µM and 1.09 µM | 4.22 µM and 2.92 µM | 0.564 µM and 0.219 µM | 0.338 µM and 0.311 µM | 1.37 µM and 0.999 µM | 0.483 µM and 1.06 µM | > 10 µM and 12 µM | 0.916 µM and 0.474 µM | > 10 µM and 12.3 µM | 2.21 µM and 2.44 µM | 6.65 µM and 6.88 µM | 
2 | Cc1ccc(-c2csc(/N=C3\C(=O)Nc4ccccc43)n2)cc1 | 2.47 µM | 6.9 µM | 1.38 µM | 2.87 µM | 1.17 µM | 2.85 µM | 1.78 | 3.71 µM | 1.63 µM | 3.02 µM | 1.49 µM | 1.32 µM | 2.79 µM | 1.96 µM | 22.4 µM | 1.61 µM | 3.55 µM | 1.47 µM | 3.03 µM | 3.16
3 | CCN(Cc1cccc(F)c1)c1ccc(CO)c(Cl)c1 | 17.3 µM | > 60.9 µM | 18.2 µM | 55.1 µM | 12 µM | 54 µM | 0.0467 | 0.18 µM | 3.86 µM | 20.4 µM | 5.28 µM | 19.2 µM | 66.8 µM | 5.09 µM | 58.7 µM | 6.68 µM | 36.3 µM | 16.2 µM | 45.5 µM | 27.8
4 | COc1ccc(S(=O)(=O)N2CC(C)(C)CN(S(=O)(=O)c3ccc(OC)cc3)C2C(=O)NO)cc1 | > 20 µM | > 20 µM | > 20 µM | > 20 µM | > 20 µM | > 20 µM | > 17.1 | > 20 µM |  | > 7.63 µM | > 14.2 µM | > 20 µM | > 20 µM | > 11.5 µM | > 20 µM | > 20 µM | > 20 µM | > 20 µM | > 20 µM | > 20
5 | Cc1ccc(S(=O)(=O)NC(=O)C2C(=O)CC3(CCCCC3)CC2=O)cc1 |  | 87.1 µM |  | > 100 µM |  | > 100 µM |  | > 100 µM |  | 67 µM |  |  | > 100 µM |  | 60.4 µM |  | > 100 µM |  |  | > 100
6 | C=C(C)C(=O)O[C@H]1C[C@@]23O[C@@H]2CCC(=C[C@H]2OC(=O)C(=C)[C@H]12)COC3O (stereo partly specified) |  | > 100 µM |  | > 100 µM |  | > 100 µM |  | > 100 µM |  | > 100 µM |  |  | > 100 µM |  |  |  | > 100 µM |  |  | 89.6
7 | Cc1nn(-c2nc3ccccc3[nH]2)c(N)c1-c1ccc(Cl)cc1 | 4.36 µM | > 100 µM | 4.6 µM | > 100 µM |  |  | 8.66 | > 100 µM | 4.08 µM | > 100 µM | 4.26 µM | 6.68 µM | > 100 µM | 3.79 µM | > 100 µM | 7.4 µM | > 100 µM | 20.9 µM | > 100 µM | 46.4
8 | COc1cc(-c2cc3ncccc3c3nc(N)c4cccnc4c23)cc(OC)c1OC | 0.756 µM | 46 µM | 0.0455 µM | 11.2 µM |  |  | 16.8 | > 100 µM | 0.296 µM | 1.99 µM | 0.742 µM | 0.284 µM | 3.02 µM | 0.936 µM | 59.8 µM | 0.538 µM | 72.5 µM | 2.93 µM | > 100 µM | 6.48
9 | COc1cc(OC)cc(N(CCNC(C)C)c2ccc3ncc(-c4cnn(C)c4)nc3c2)c1 | 4.75 µM | 18.9 µM | 5.73 µM | 19 µM | 0.523 µM | 4.2 µM | 4.53 | 23 µM |  |  | 1.2 µM | 4.45 µM | 18.6 µM | 2.23 µM | 12.3 µM | 1.99 µM | 6 µM | 10.9 µM | 24.3 µM | 5.16
10 | COc1ccc(-c2cc(=O)c3ccc(C)nc3[nH]2)cc1 |  | > 100 µM | 42.7 µM | > 100 µM |  |  |  | > 100 µM | 48 µM | > 100 µM |  |  | > 100 µM |  | > 100 µM |  | > 100 µM |  | > 100 µM | > 100
11 | Cc1cc(S(=O)(=O)Nc2nc3cscc3c(=O)n2Cc2ccccc2)c(S)cc1Cl | 55.7 µM | > 100 µM | 44.4 µM | > 100 µM | > 100 µM | > 100 µM | 60.1 | > 100 µM | 21.4 µM | > 100 µM | 36.2 µM | 61.3 µM | > 100 µM | 51.8 µM | > 100 µM |  |  | 74.3 µM | > 100 µM | > 100
12 | Clc1nc(Cl)c2ncn(Cc3cccc(Cn4cnc5c(Cl)nc(Cl)nc54)c3)c2n1 | 4.67 µM | 18.6 µM | 7.29 µM | 22.2 µM | 5.58 µM | 22.6 µM | 4.76 | 26.8 µM | 2.47 µM | 5.87 µM | 1.92 µM | 2.77 µM | 7.65 µM | 1.92 µM | 3.55 µM |  |  | 4.25 µM | 22.1 µM | 3.72
